From US20120053155A1, “SYSTEM AND METHOD FOR REVERTING ANTIBIOTIC TOLERANCE OF BACTERIAL PERSISTER CELLS” (Syracuse University, priority 2010, published 2012)

What was measured:
[1] = system: Vibrio harveyi BB886 quorum sensing based on homoserine lactones; assay: Quorum sensing assay (bioluminescence of reporter strain); type: cell-based; settings: 10 μg/mL; V. harveyi BB886; bioluminescence at 5 h after inoculation
Protocol: To understand the effects of BFs on quorum sensing, the reporter strain Vibrio harveyi BB886 was used to monitor the quorum sensing based on homoserine lactones. Briefly, an overnight culture of this strain was diluted by 1:5000 in autoinducer bioassay medium with BFs supplemented at different concentrations. The bioluminescence was measured at 5 h after inoculation.

P. aeruginosa PAO1 = assay: Effect on persister formation in subcultures (CFU after Cip treatment); type: cell-based, Pseudomonas aeruginosa
Protocol: A P. aerugionsa PAO1 overnight culture was sub-cultured into 6 tubes with 5 mL fresh LB medium in each with the optical density at 600 nm (OD600) adjusted to 0.05. Each tube contained different concentrations of BF8 (0, 5, 10, 30, 50 and 100 μg/mL) diluted from a 60 mg/mL stock solution. The amount of ethanol was adjusted to be the same for all samples to eliminate solvent effects. After 5 h of incubation, 2 mL sample from each tube was washed and plated on LB agar plates for counting colony forming units (“CFU”); while 3 mL of sample was added with 200 μg/mL Cip and incubated for 3.5 h to count the numbers of cells that remained as persisters.
To compare with the effects of sugars known to promote antibiotic uptake by persisters, the above experiment was repeated using 10 mM glucose and mannitol instead of BF8.

[2] = system: P. aeruginosa PAO1 persister cells; assay: Viability of isolated persister cells (CFU); type: cell-based, Pseudomonas aeruginosa; settings: up to 2 μg/mL; 0.85% NaCl buffer
Protocol: (§1) Pseudomonas aeruginosa PAO1 was routinely grown in Luria-Bertani (LB) medium. To isolate persister cells, an overnight culture was incubated for 18 h at 37° C. with shaking at 200 rpm, washed twice with 0.85% NaCl buffer, resuspended in the same buffer and then treated with 200 μg/mL Cip for 3.5 h to lyse the regular cells. The remaining persister cells were then harvested by centrifugation at 13,200 rpm for 3 min at room temperature and then treated with or without furanones as described below.
(§2) To obtain persisters, 3 mL of overnight culture of P. aeruginosa PAO1 was incubated for 3.5 h with 200 μg/mL Cip to kill all regular cells. The remaining persisters were washed twice with and resuspended in 0.85% NaCl buffer with 1:50 dilution. Samples were taken immediately to count the CFUs of persisters. Then, each 5 mL of 0.85% NaCl buffer containing persister cells was treated for 3.5 h with 0, 0.1, 0.5, 1 and 2 μg/mL of BF8. The amount of ethanol was adjusted to be the same for all samples. CFUs of treated persister cells were counted to understand if BF8 has any effects on the viability of persister cells.

[3] = system: P. aeruginosa PAO1 persister cells; assay: Antibiotic (Cip) susceptibility of isolated persister cells; type: cell-based, Pseudomonas aeruginosa; settings: for reverting antibiotic tolerance of persisters: different concentrations, 0.85% NaCl buffer, Cip
Protocol: as §1, §2
The persister cells treated with BF8 as described above were then treated again with 200 μg/mL Cip to understand if any persister cells restored susceptibility to Cip. The CFUs were counted as described above.

[4] = system: P. aeruginosa PAO1 persister cells; assay: DNA microarray analysis of gene expression in persister cells; type: cell-based, Pseudomonas aeruginosa; settings: 1 μg/mL, 1 h
Protocol: Persister cells were harvested from a 100 mL 18-h culture of P. aeruginosa PAO1. The isolated persister cells were resuspended in 0.85% NaCl buffer supplemented with 1 μg/mL (3.7 μM) BF8 or with the same amount of ethanol (4.17 μL to eliminate the solvent effect as the control). After incubation at 37° C. for 1 h, cells were collected by centrifugation at 10,000 rpm for 5 minutes at 4° C., transferred to 2 mL pre-cooled microcentrifuge tubes and frozen in an ethanol-dry ice bath. The cell pellets were stored at −80° C. until RNA isolation.
The RNeasy Mini Kit (Qiagen) was used to isolate total RNA. First, the cells were lysed by beating at 4,800 oscillations/min using a mini-bead beater (Biospec Products Inc., Bartlesville, Okla.) with 0.5-mm glass beads, 900 uL RLT buffer and 1% 2-Mercaptoethanol. The total RNA was extracted following the manufacture's protocol with additional wash with RW1 buffer, RPE buffer and DNase treatment (RNase-Free DNase Set, Qiagen). The RNA samples were sent to the DNA microarray Facilities at SUNY Upstate Medical University for microarray hybridization.

CC1=C(Br)/C(=C/Br)OC1=O [BF8]
response of the reporter strain to homoserine lactones [1]: completely eliminated
cells persistent (retaining antibiotic tolerance) after treatment (P. aeruginosa PAO1; 100 μg/mL BF8, 5 h incubation, 200 μg/mL Cip): 1.6%
reduction of the number of persister cells formed compared to the furanone-free control (P. aeruginosa PAO1; 100 μg/mL, 5 h incubation in LB medium, 200 μg/mL Cip 3.5 h): up to 100 times
killing effects on persister cells (viability) [2]: did not exhibit any significant killing effects
persister cells rendered sensitive to Cip ([3]; 2 μg/mL, then 200 μg/mL Cip): around 90%
susceptibility of persisters to Cip ([3]; 0.5, 1 and 2 μg/mL, then 200 μg/mL Cip): more susceptible to Cip
Expression Ratio PA0182 ([4]; gene PA0182 (3-ketoacyl-(acyl-carrier-protein) reductase)): 97.1
Expression Ratio PA0422 ([4]; gene PA0422 (hypothetical protein)): 4.2
Expression Ratio PA0565 ([4]; gene PA0565 (hypothetical protein)): 12.8
Expression Ratio PA0741 ([4]; gene PA0741 (hypothetical protein)): 16.5
Expression Ratio PA1127 ([4]; gene PA1127 (oxidoreductase)): 3.4
Expression Ratio PA1210 ([4]; gene PA1210 (hypothetical protein)): 21
Expression Ratio PA1285 ([4]; gene PA1285 (transcriptional regulator)): 4.4
Expression Ratio PA1334 ([4]; gene PA1334 (oxidoreductase)): 227.6
Expression Ratio PA1374 ([4]; gene PA1374 (hypothetical protein)): 3.4
Expression Ratio PA1470 ([4]; gene PA1470 (short chain dehydrogenase)): 4.1
Expression Ratio PA2196 ([4]; gene PA2196 (transcriptional regulator)): 4.8
Expression Ratio PA2378 ([4]; gene PA2378 (aldehyde dehydrogenase)): 3.1
Expression Ratio PA2535 ([4]; gene PA2535 (oxidoreductase)): 9
Expression Ratio PA2575 ([4]; gene PA2575 (hypothetical protein)): 9.1
Expression Ratio PA2580 ([4]; gene PA2580 (hypothetical protein)): 8.3
Expression Ratio PA2610 ([4]; gene PA2610 (hypothetical protein)): 7.2
Expression Ratio PA2691 ([4]; gene PA2691 (hypothetical protein)): 3.7
Expression Ratio PA2839 ([4]; gene PA2839 (hypothetical protein)): 11
Expression Ratio PA2931 ([4]; gene PA2931 (CifR)): 11
Expression Ratio PA2932_morB ([4]; gene PA2932_morB (morphinone reductase)): 64.9
Expression Ratio PA3133 ([4]; gene PA3133 (transcriptional regulator)): 3.5
Expression Ratio PA3223_acpD ([4]; gene PA3223_acpD (AzoR3, azoreductase 3)): 4.8
Expression Ratio PA3240 ([4]; gene PA3240 (hypothetical protein)): 14.4
Expression Ratio PA3523 ([4]; gene PA3523 (RND efflux membrane fusion protein precursor)): 9.6
Expression Ratio PA3920 ([4]; gene PA3920 (metal transporting P-type ATPase)): 3.9
Expression Ratio PA4167 ([4]; gene PA4167 (2,5-diketo-D-gluconate reductase B)): 510.6
Expression Ratio PA4173 ([4]; gene PA4173 (hypothetical protein)): 36.7
Expression Ratio PA4878 ([4]; gene PA4878 (transcriptional regulator)): 4.2

CC1=CC(=C(Br)Br)OC1=O [BF9]
reverting antibiotic tolerance of persisters [3]: revert antibiotic tolerance in a dose dependent manner

O=C1OC(=C(Br)Br)C=C1C(Br)Br [BF10]
reverting antibiotic tolerance of persisters [3]: revert antibiotic tolerance in a dose dependent manner

O=C1OC(=C(Br)Br)C=C1CBr [BF11]
reverting antibiotic tolerance of persisters [3]: revert antibiotic tolerance in a dose dependent manner

CC1=C(Br)C(C(Br)Br)OC1=O (centres unmarked) [BF14]
reverting antibiotic tolerance of persisters [3]: revert antibiotic tolerance in a dose dependent manner
